From ChEMBL document CHEMBL6074642, “Natural and Bioinspired Lipidic Alkynylcarbinols as Leishmanicidal, Antiplasmodial, Trypanocidal, Fungicidal, Antibacterial, and Antimycobacterial Agents” (J Nat Prod, 2024) come the findings set out here.

The test system of assay [1] is Leishmania amazonensis. The assay can be described thus: Antileishmanial activity against leishmania amazonensis promastigotes MHOM/BR/77/LTB0016 assessed as assessed as parasite growth inhibition incubated for 72 hrs by Alamar Blue assay. The class given is functional, organism-based. The conditions noted are these: MHOM/BR/77/LTB0016, 72 h. Background: The colour change of resazurin is a common sign of viable cells or microbes.

Assay [2] concerns Phytophthora capsici. The assay can be described thus: Antifungal activity against Phytophthora capsici. It is filed as functional, organism-based.
The subject of assay [3] is Bacillus subtilis. As to the kind of experiment: Antibacterial activity against Bacillus subtilis. It is filed as functional.
Assay [4] deals with Enterococcus faecalis. As to the kind of experiment: Antibacterial activity against Enterococcus faecalis. It is filed as functional.
Assay [5] has as its system Plasmodium falciparum. The assay can be described thus: Antiplasmodial activity against Plasmodium falciparum assessed as parasite growth inhibition. The class given is functional, organism-based.
Assay [6] has as its system Streptococcus pyogenes. The assay can be described thus: Antibacterial activity against Streptococcus pyogenes assessed as bacterial growth inhibition. It is filed as functional.
Assay [7] deals with Leishmania donovani. As to the kind of experiment: Antileishmanial activity against Leishmania donovani amastigotes infected in J774 macrophage assessed as inhibition of parasite growth incubated for 48 hrs by luciferase assay. It is filed as functional, organism-based. The settings on record: J774, 48 h.
Assay [8] deals with Alternaria kikuchiana. As to the kind of experiment: Antifungal activity against Alternaria kikuchiana. It is filed as functional, organism-based.
For assay [9], the system named is Colletotrichum gloeosporioides. As to the kind of experiment: Antifungal activity against Colletotrichum gloeosporioides. It is filed as functional, organism-based.
Assay [10] has as its system Bipolaris sorokiniana. As to the kind of experiment: Antifungal activity against Cochliobolus sativus. The class given is functional, organism-based.
The subject of assay [11] is Pseudomonas aeruginosa. As to the kind of experiment: Antibacterial activity against Pseudomonas aeruginosa assessed as reduction in bacterial growth incubated for 24 hrs by broth microdilution method. It is filed as functional, organism-based.
In assay [12] the test system is Mycobacterium intracellulare. As to the kind of experiment: Antibacterial activity against Mycobacterium intracellulare. It is filed as functional, organism-based.
Assay [13] concerns Mycobacterium tuberculosis. As to the kind of experiment: Antimycobacterial activity against Mycobacterium tuberculosis H37Rv assessed as inhibition of bacterial growth incubated for 7 to 14 days by MABA assay. It is filed as functional. The conditions noted are these: time 7-14 day.
Assay [14] deals with Bacillus subtilis. As to the kind of experiment: Antibacterial activity against Bacillus subtilis PY79 assessed as reduction in bacterial growth. The class given is functional, organism-based.
Assay [15] relates to Mycolicibacterium fortuitum. As to the kind of experiment: Antimycobacterial activity against Mycobacterium fortuitum. The class given is functional.
The test system of assay [16] is Mycolicibacterium aurum. The assay can be described thus: Antimycobacterial activity against Mycobacterium aurum. It is filed as functional.
For assay [17], the system named is Mycobacterium tuberculosis. As to the kind of experiment: Antibacterial activity against Mycobacterium tuberculosis H37Ra assessed as reduction in bacterial growth incubated for 14 days by CLSI protocol based method. The conditions noted are these: 336 h, time 14 day. The class given is functional.
Assay [18] has as its system Mycobacterium tuberculosis. The assay can be described thus: Antitubercular activity against Mycobacterium tuberculosis H37Ra assessed as inhibition of bacterial growth. It is filed as functional.
In assay [19] the test system is Mycobacterium tuberculosis. The assay can be described thus: Antimycobacterial activity against Mycobacterium tuberculosis H37Ra. It is filed as functional, organism-based.
The subject of assay [20] is Mycolicibacterium smegmatis. The assay can be described thus: Antimycobacterial activity against Mycobacterium smegmatis mc2 155 assessed as reduction in bacterial growth. The class given is functional.
Assay [21] concerns Escherichia coli. As to the kind of experiment: Antibacterial activity against Escherichia coli. It is filed as functional.
Assay [22] concerns Staphylococcus aureus. As to the kind of experiment: Antibacterial activity against Staphylococcus aureus assessed as reduction in microbial growth by CLSI based broth microdilution method. It is filed as functional. For orientation: Broth dilution looks for growth in wells or tubes with falling amounts of substance.
Assay [23] has as its system Staphylococcus aureus. The assay can be described thus: Antimicrobial activity against methicillin-resistant Staphylococcus aureus assessed as reduction in microbial growth after 24 to 48 hrs by microdilution susceptibility test. It is filed as functional. The settings on record: time 24-48 hrs.

Values after ≈ are worked out from the molar mass of the structure shown. Some results are limits rather than exact numbers.

The term IC50 denotes the point on the concentration scale where inhibition reaches its midpoint. Turning to `C=CC(O)C#CC#CC(O)/C=C\CCCCCCC` (centres undefined), in assay [1], the IC50 turned out to be 5.7 µM.
A word on the EC50: it is the concentration giving half of the maximal effect. `C=C[C@H](O)C#CC#C[C@@H](O)c1cccs1` displayed an EC50 in [2] of 3.6 µg/mL (≈ 16.5 µM).
For orientation: MIC means the smallest concentration in the dilution series that meets the test's criterion for growth inhibition. Regarding `C=C[C@@H](C#CC#C[C@H](O)CCCCCCCCC)OC(C)=O`, the results for the minimal inhibitory concentration (MIC) in [3], in [4] and in assay [6] were 8 µM (≈ 2.44 µg/mL), 32 µM (≈ 9.74 µg/mL) and 8 µM (≈ 2.44 µg/mL), respectively. In addition, the half-maximal inhibitory concentration (IC50) in assay [5] was determined as 0.341 µg/mL (≈ 1.12 µM); in assay [7], 0.63 µM.
In the case of `C=C[C@H](O)C#CC#CC/C=C/CCCCCCCC`, the EC50 was found to be 41 µg/mL (≈ 159 µM) in [8], 46 µg/mL (≈ 178 µM) in assay [9] and 9 µg/mL (≈ 34.8 µM) in assay [10].
Compound `C=C[C@@H](O)C#CC#CC/C=C/CCCCCCCC` returned an EC50 in [8] of 51 µg/mL (≈ 197 µM).
As for `CCCCCCCCCCCCCCCC[C@@H](O)C#CC#CCO`, the figures for the IC50 in assay [11] and in [12] were 1.9 µM and 7.7 µM, respectively.
As for `C#CC(O)/C=C/CCCCCCCCC/C=C/CCCCCCCCC/C=C/C(O)C#C` (centres undefined), in [13], the MIC was 1.4 µM (≈ 0.617 µg/mL).
Turning to `C#CC(O)/C=C/C(O)CCCC(O)C(O)C#CC(O)C#CCCCCC(=O)CCCCC/C=C/C(O)CCCCCCCCCCCCC(O)C(O)C(O)C#CC(=O)O` (centres undefined), the IC50 in assay [14] is 48 µg/mL (≈ 57.9 µM).
As to `C#CC(O)/C=C/C(O)CCCC(O)CC#CC(O)C#CC(O)CCCC(=O)CCCCC/C=C/C(O)CCCCCCCCCCCCCC(O)C(O)C#CC(=O)O` (centres undefined), in [14], the half-inhibitory concentration (IC50) is 12 µg/mL (≈ 14.8 µM).
Consider `C#CC(O)/C=C/C(O)CCCC(O)C(O)C#CC(O)C#CCCCC(O)/C=C/CCCCCCCCCCCCCCCCCCCCCC(O)C(O)C#CC(=O)O` (centres undefined), for which the IC50 in [14] was found to be 25 µg/mL (≈ 30.7 µM).
With `C#CC(O)/C=C/C(O)CCCC(O)C(O)C#CC(O)C#CCCCCC(=O)CCCCC/C=C/C(O)CCCCCCCCCCCCCC(O)C(O)C#CC(=O)O` (centres undefined), the IC50 in [14] turned out to be 25 µg/mL (≈ 30.7 µM).
With `C=C[C@@H](O)C#CC#CC/C=C\CCCCCCCC`, in assay [8], the response was half-maximal at 48 µg/mL (≈ 186 µM) (EC50).
Take `C#CC(O)/C=C/C(O)CCCC(O)CC#CC(O)C#CC(O)CCCC(=O)CCCCC/C=C/C(O)CCCCCCCCCCCCC(O)C(O)C(O)C#CC(=O)O` (centres undefined): the IC50 in assay [14] turned out to be 12 µg/mL (≈ 14.5 µM).
Take `C=C[C@@H](O)C#CC#CC/C=C\CCCCCCC`: the MIC in [15] was determined as 16 µM (≈ 3.91 µg/mL); in assay [16], 16 µM (≈ 3.91 µg/mL); in assay [17], 6.25 µg/mL (≈ 25.6 µM); in assay [18], 3.73 µg/mL (≈ 15.3 µM); in assay [20], 12 µg/mL (≈ 49.1 µM). The compound further showed an IC50 in assay [19] of 15 µM.
As to `C=C[C@@H](O)C#CC#C[C@H](O)c1cccs1`, the EC50 in [2] worked out at 31 µg/mL (≈ 142 µM).
As to `CC(C)CCCC/C=C\CCCCCCCCC[C@@H](O)C#CC#CCO`, the IC50 came to 1.7 µM in assay [11] and 9.9 µM in [12].
For `CCCCCC/C=C\CCCCCCCCC[C@@H](O)C#CC#CCO` the same measures were 2.6 µM and 23 µM.
For the compound `C=CC(O)C#CC#C/C=C/C(O)CCCCCCC` (centres undefined), the IC50 in [1] worked out at 5.8 µM.
Regarding `C#CC(O)/C=C/C(O)CCCC(O)CC#CC(O)C#CCCCCC(=O)CCCCC/C=C/C(O)CCCCCCCCCCCCCC(O)C(O)C#CC(=O)O` (centres undefined), in [14], the IC50 was 12 µg/mL (≈ 15.1 µM).
Compound `C=C[C@H](O)C#CC#C[C@H](O)c1cccs1` registered an EC50 in [2] of 2.7 µg/mL (≈ 12.4 µM).
Take `CC[C@H](O)C#CC#C[C@@H](O)/C=C\CCCCCCCCOC(C)=O` [OPLOPANDIOL ACETATE]: the MIC in [21] was above 50 µg/mL.
Consider `C=C[C@@H](C#CC#C[C@@H](CCCCCCCCC)NS(C)(=O)=O)OC(C)=O`, for which the values for the MIC in [3] and in assay [6] were 4 µM (≈ 1.53 µg/mL) and 8 µM (≈ 3.05 µg/mL), respectively. Moreover, the IC50 in [7] was 0.05 µM.
As for `CCCCCCCCCCCCC1CC1CCCC(O)C#CC#CCO` (centres undefined), the figures for the IC50 in assay [11] and in [12] were 1.8 µM and 14 µM, respectively.
Take `C#CC(O)/C=C/C(O)CCCC(O)CC#CC(O)C#CCCCC(O)/C=C/CCCCCC(=O)CCCCCCCCCCCCCC(O)C(O)C(O)C#CC(=O)O` (centres undefined): the IC50 in assay [14] is 12 µg/mL (≈ 14.8 µM).
Consider `C=C[C@@H](O)C#CC#C[C@@H](O)/C=C\CCCCCCC` [FALCARINDIOL], for which the values for the MIC in assay [17], in assay [22] and in [23] were 1.6 µg/mL (≈ 6.14 µM), 7.8 µg/mL and 16 µg/mL, respectively.
